Laboratory results from the supplement of paper PMC10307832.

Key:
Experiment in all cases: relative viability (nuclei count vs DMSO), 5 days (fraction); higher = more cells survive
NCI-H2009 = system: NCI-H2009
How it was run: (§1)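 Relative viability equals treated-well nuclei counts divided by vehicle-well nuclei counts. Counts came from 4× images of lung cancer cell lines grown in 1536-well plates for 5 days after pin-tool dosing on the day after seeding. Dosing used one drug alone or a fixed anchor-drug dose plus five library-drug doses (not always all listed) in √10 steps, and values are medians of duplicate plates.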

NCI-H647 = system: NCI-H647
How it was run: as §1

NCI-H1648 = system: NCI-H1648
How it was run: as §1

NCI-H2405 = system: NCI-H2405
How it was run: as §1

LOU-NH91 = system: LOU-NH91
How it was run: as §1

IA-LM = system: IA-LM
How it was run: as §1

A549 = system: A549
How it was run: as §1

Molecule `CCNC(=O)c1noc(-c2cc(C(C)C)c(O)cc2O)c1-c1ccc(CN2CCOCC2)cc1` [Luminespib] + O=C(CCCCCCC(=O)Nc1ccccc1)NO [Vorinostat] (partner 1 µM) has a relative viability (NCI-H2009; first compound 0.002 µM) of 0.765, a relative viability (NCI-H2009; first compound 0.006325 µM) of 0.594 and a relative viability (NCI-H2009; first compound 0.02 µM) of 0.705. The relative viability (NCI-H2009; first compound 0.06325 µM) was 0.429, the relative viability (NCI-H2009; first compound 0.2 µM) was 0.113 and the relative viability (NCI-H647; first compound 0.002 µM) was 0.584. For the same molecule, the relative viability (NCI-H647; first compound 0.006325 µM) was 0.381, the relative viability (NCI-H647; first compound 0.02 µM) was 0.646 and the relative viability (NCI-H647; first compound 0.06325 µM) was 0.11. It also gave a relative viability (NCI-H647; first compound 0.2 µM) of 0.0869, a relative viability (NCI-H1648; first compound 0.002 µM) of 0.299 and a relative viability (NCI-H1648; first compound 0.006325 µM) of 0.502. The relative viability (NCI-H1648; first compound 0.02 µM) was 0.344, the relative viability (NCI-H1648; first compound 0.06325 µM) was 0.566 and the relative viability (NCI-H1648; first compound 0.2 µM) was 0.348. The relative viability (NCI-H2405; first compound 0.002 µM) was 1.11, the relative viability (NCI-H2405; first compound 0.02 µM) was 0.884 and the relative viability (NCI-H2405; first compound 0.06325 µM) was 0.194. For the same molecule, the relative viability (NCI-H2405; first compound 0.2 µM) was 0.165, the relative viability (LOU-NH91; first compound 0.002 µM) was 0.935 and the relative viability (LOU-NH91; first compound 0.006325 µM) was 0.872. It also gave a relative viability (LOU-NH91; first compound 0.02 µM) of 0.647, a relative viability (LOU-NH91; first compound 0.06325 µM) of 0.335 and a relative viability (LOU-NH91; first compound 0.2 µM) of 0.377. For the same molecule, the relative viability (IA-LM; first compound 0.002 µM) was 0.918, the relative viability (IA-LM; first compound 0.006325 µM) was 0.934 and the relative viability (IA-LM; first compound 0.02 µM) was 0.64. The relative viability (IA-LM; first compound 0.06325 µM) was 0.077 and the relative viability (IA-LM; first compound 0.2 µM) was 0.0416.
`Cc1csc(=NC2CCCCC2)n1/N=C/c1ccc(O)c(O)c1O` [MIM1] + O=C(CCCCCCC(=O)Nc1ccccc1)NO [Vorinostat] (partner 1 µM) gave a relative viability (NCI-H2009; first compound 0.2 µM) of 0.717, a relative viability (NCI-H2009; first compound 0.6325 µM) of 0.713 and a relative viability (NCI-H2009; first compound 2 µM) of 0.685. For the same molecule, the relative viability (NCI-H2009; first compound 6.325 µM) was 0.506, the relative viability (NCI-H2009; first compound 20 µM) was 0.372 and the relative viability (NCI-H647; first compound 0.2 µM) was 0.655. It also gave a relative viability (NCI-H647; first compound 0.6325 µM) of 0.61, a relative viability (NCI-H647; first compound 2 µM) of 0.614 and a relative viability (NCI-H647; first compound 6.325 µM) of 0.454. For the same molecule, the relative viability (NCI-H647; first compound 20 µM) was 0.104, the relative viability (NCI-H1648; first compound 0.2 µM) was 0.431 and the relative viability (NCI-H1648; first compound 0.6325 µM) was 0.396. For the same molecule, the relative viability (NCI-H1648; first compound 2 µM) was 0.337, the relative viability (NCI-H1648; first compound 6.325 µM) was 0.404 and the relative viability (NCI-H1648; first compound 20 µM) was 0.206. It also gave a relative viability (NCI-H2405; first compound 0.2 µM) of 1.01, a relative viability (NCI-H2405; first compound 0.6325 µM) of 0.964 and a relative viability (NCI-H2405; first compound 2 µM) of 1.11. For the same molecule, the relative viability (NCI-H2405; first compound 6.325 µM) was 0.749, the relative viability (NCI-H2405; first compound 20 µM) was 0.416 and the relative viability (LOU-NH91; first compound 0.2 µM) was 0.672. The relative viability (LOU-NH91; first compound 0.6325 µM) was 0.822, the relative viability (LOU-NH91; first compound 2 µM) was 0.699 and the relative viability (LOU-NH91; first compound 6.325 µM) was 0.359. The relative viability (LOU-NH91; first compound 20 µM) was 0.298, the relative viability (IA-LM; first compound 0.2 µM) was 0.883 and the relative viability (IA-LM; first compound 0.6325 µM) was 0.935. The relative viability (IA-LM; first compound 2 µM) was 0.93, the relative viability (IA-LM; first compound 6.325 µM) was 0.57 and the relative viability (IA-LM; first compound 20 µM) was 0.159.
`Cc1cn(-c2cc(NC(=O)c3ccc(C)c(Nc4nccc(-c5cccnc5)n4)c3)cc(C(F)(F)F)c2)cn1` [Nilotinib] + Nc1ncn([C@H]2C[C@H](O)[C@@H](CO)O2)c(=O)n1 [Decitabine] (partner 2 µM) showed a relative viability (NCI-H2009; first compound 0.001 µM) of 0.372, a relative viability (NCI-H2009; first compound 0.003162 µM) of 0.393 and a relative viability (NCI-H2009; first compound 0.01 µM) of 0.412. For the same molecule, the relative viability (NCI-H2009; first compound 0.03162 µM) was 0.406, the relative viability (NCI-H2009; first compound 0.1 µM) was 0.421 and the relative viability (NCI-H647; first compound 0.001 µM) was 0.396. The relative viability (NCI-H647; first compound 0.003162 µM) was 0.446, the relative viability (NCI-H647; first compound 0.01 µM) was 0.573 and the relative viability (NCI-H647; first compound 0.03162 µM) was 0.448. It also gave a relative viability (NCI-H647; first compound 0.1 µM) of 0.528, a relative viability (NCI-H1648; first compound 0.001 µM) of 0.588 and a relative viability (NCI-H1648; first compound 0.003162 µM) of 0.496. It also gave a relative viability (NCI-H1648; first compound 0.01 µM) of 0.476, a relative viability (NCI-H1648; first compound 0.03162 µM) of 0.497 and a relative viability (NCI-H1648; first compound 0.1 µM) of 0.469. For the same molecule, the relative viability (A549; first compound 0.001 µM) was 0.199, the relative viability (A549; first compound 0.01 µM) was 0.386 and the relative viability (A549; first compound 0.03162 µM) was 0.198. The relative viability (A549; first compound 0.1 µM) was 0.116, the relative viability (NCI-H2405; first compound 0.001 µM) was 0.724 and the relative viability (NCI-H2405; first compound 0.003162 µM) was 0.815. The relative viability (NCI-H2405; first compound 0.01 µM) was 0.798, the relative viability (NCI-H2405; first compound 0.03162 µM) was 0.65 and the relative viability (NCI-H2405; first compound 0.1 µM) was 0.509. The relative viability (LOU-NH91; first compound 0.001 µM) was 0.776, the relative viability (LOU-NH91; first compound 0.003162 µM) was 0.864 and the relative viability (LOU-NH91; first compound 0.01 µM) was 0.889. The relative viability (LOU-NH91; first compound 0.03162 µM) was 0.898 and the relative viability (LOU-NH91; first compound 0.1 µM) was 0.837.
